Data on 25 compounds can be found in US8686024B2, “Indoline derivatives” (priority 2009, dated 2014).

The structures appear in SMILES notation. Read-outs that look alike come from different tables or passages of the source.

Experiment [1] has as its target T1, butyrylcholine esterase (BuChE) (Mus musculus, UniProt Q03311).
T1 construct: brain homogenate and serum of mouse were used as choline esterase enzyme sources; from tissue; host or cells: mouse serum
The experiment in a line: In vitro assay for choline esterase inhibition (Ellman method), butyrylthiocholine substrate, mouse serum. The format is biochemical. Conditions: for Ratio AChE/BuChE: selectivity for BuChE inhibition: IC50 (AchE)/IC50 (BuChE); for selectivity to butyrylcholinesterase (BuChE versus AChE inhibitory activity), in words: summary of Tables 1-3. The protocol:
(§1) For measurement of esterase activity, brain homogenate and serum of mouse were used as choline esterase enzyme sources, and the method of Ellman et. al (Biochemical pharmacology 7: 88-95 1961) were referred. Compound of each example were diluted in dimethylsulfoxide.
(§2) In detail, acetylthiocholine or butyrylthiocholine as substrates, test compounds, and DNTB [[…]] were added to the mouse brain homogenate or serum, respectively.
(§3) After incubation, thiocholine was produced by enzyme reaction in the mixture, and then, the yellow product was formed by the reaction of thiocholine and DTNB. The activity of acetylcholine esterase (AChE) or butyrylcholine esterase (BuChE) was evaluated by determination of absorbance at 415 nm. […] And the selectivity for BuChE inhibition of each compound was calculated by the ratio: IC50 (AchE)/IC50 (BuChE).

Experiment [2] addresses T2, acetylcholine esterase (AChE) (Mus musculus, UniProt P21836).
T2 construct: brain homogenate and serum of mouse were used as choline esterase enzyme sources; from tissue; host or cells: mouse brain homogenate
T2 sequence (P21836 32-614): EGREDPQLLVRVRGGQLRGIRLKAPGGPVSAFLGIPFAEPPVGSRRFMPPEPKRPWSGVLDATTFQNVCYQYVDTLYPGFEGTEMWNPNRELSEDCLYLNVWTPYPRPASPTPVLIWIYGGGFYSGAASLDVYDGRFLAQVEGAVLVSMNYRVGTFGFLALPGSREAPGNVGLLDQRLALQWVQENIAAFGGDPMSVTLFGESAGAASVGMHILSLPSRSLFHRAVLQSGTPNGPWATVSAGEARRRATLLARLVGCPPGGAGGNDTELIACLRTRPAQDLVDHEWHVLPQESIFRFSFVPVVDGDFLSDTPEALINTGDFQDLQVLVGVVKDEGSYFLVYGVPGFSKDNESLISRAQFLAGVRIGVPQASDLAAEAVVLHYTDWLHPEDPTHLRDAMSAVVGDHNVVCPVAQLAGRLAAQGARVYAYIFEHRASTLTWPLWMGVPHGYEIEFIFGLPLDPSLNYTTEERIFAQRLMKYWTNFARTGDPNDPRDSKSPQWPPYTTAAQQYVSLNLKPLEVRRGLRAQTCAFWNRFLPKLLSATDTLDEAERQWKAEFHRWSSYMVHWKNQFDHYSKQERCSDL
Kind of experiment: In vitro assay for choline esterase inhibition (Ellman method), acetylthiocholine substrate, mouse brain homogenate. Format: biochemical. The method, then: as §1, §2, §3

Setting [3] is: mouse serum, butyrylthiocholine, absorbance at 415 nm, read-out: BuChE inhibitory activity IC50.
Setting [4] is: mouse brain homogenate, acetylthiocholine, absorbance at 415 nm, read-out: AChE inhibitory activity IC50.

T1 sequence (Q03311 30-603): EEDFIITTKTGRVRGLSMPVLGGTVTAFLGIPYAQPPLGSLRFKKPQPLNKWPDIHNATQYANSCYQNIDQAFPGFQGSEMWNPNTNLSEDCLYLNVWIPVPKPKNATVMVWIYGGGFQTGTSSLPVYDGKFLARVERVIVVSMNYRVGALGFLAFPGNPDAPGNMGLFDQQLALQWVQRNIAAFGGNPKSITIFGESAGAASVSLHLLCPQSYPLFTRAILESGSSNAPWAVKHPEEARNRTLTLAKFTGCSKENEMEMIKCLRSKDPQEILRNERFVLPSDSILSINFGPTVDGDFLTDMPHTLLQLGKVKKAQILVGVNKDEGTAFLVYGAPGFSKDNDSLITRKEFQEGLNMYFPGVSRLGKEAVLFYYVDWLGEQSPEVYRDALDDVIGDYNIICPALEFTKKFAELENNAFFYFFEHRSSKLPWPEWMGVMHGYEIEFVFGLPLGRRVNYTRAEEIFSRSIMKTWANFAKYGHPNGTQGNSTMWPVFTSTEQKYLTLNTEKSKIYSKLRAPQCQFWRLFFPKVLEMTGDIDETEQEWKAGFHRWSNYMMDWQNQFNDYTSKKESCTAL

Take `O=C(NCC12CC3CC(CC(C3)C1)C2)Oc1ccc2c(c1)CCN2Cc1ccccc1` [Example 47, 1-benzylindolin-5-yl 1-adamantanemethylcarbamate]: in experiment [1], the IC50 is 82 nM; the “Ratio AChE/BuChE” value is listed as more than 1200; the “selectivity to butyrylcholinesterase (BuChE versus AChE inhibitory activity), in words” value is “much higher”. The half-maximal inhibitory concentration (IC50) in experiment [2] was more than 100000 nM.
`CSCCCNC(=O)Oc1ccc2c(c1)CCN2Cc1ccccc1` [Example 49, 1-benzylindolin-5-yl 3-methylthiopropylcarbamate]: the IC50 in experiment [1] (setting [3]) turned out to be 12 nM. For the same compound, in experiment [1], the “Ratio AChE/BuChE” value came to 530 and the “selectivity to butyrylcholinesterase (BuChE versus AChE inhibitory activity), in words” value is listed as “much higher”. Besides, the half-inhibitory concentration (IC50) in experiment [2] (setting [4]) turned out to be 6300 nM.
For `CCCCCC(C)NC(=O)Oc1ccc2c(c1)CCN2Cc1ccccc1` (stereo not drawn) [Example 50, 1-benzylindolin-5-yl 2-heptylcarbamate], in experiment [1], inhibition was half-maximal at 53 nM (IC50); the “Ratio AChE/BuChE” value was more than 1900; the “selectivity to butyrylcholinesterase (BuChE versus AChE inhibitory activity), in words” value was “much higher”. Moreover, in experiment [2], the IC50 is more than 100000 nM.
For the compound `O=C(NCC1CCCO1)Oc1ccc2c(c1)CCN2Cc1ccccc1` (stereo not drawn) [Example 51, 1-benzylindolin-5-yl 2-tetrahydrofurylmethylcarbamate], the concentration for half-maximal inhibition (IC50) in experiment [1] (setting [3]) was determined as 16 nM. Also, in experiment [1], the “Ratio AChE/BuChE” value worked out at 1100 and the “selectivity to butyrylcholinesterase (BuChE versus AChE inhibitory activity), in words” value is “much higher”. Moreover, in experiment [2] (setting [4]), the IC50 was 18000 nM.
In the same order, the values of `C=C(C)CNC(=O)Oc1ccc2c(c1)CCN2Cc1ccccc1` [Example 53, 1-benzylindolin-5-yl 2-methylallylcarbamate] are 28 nM, 1600, “much higher” and 46000 nM.
As for `O=C(NCCSCc1ccco1)Oc1ccc2c(c1)CCN2Cc1ccccc1` [Example 54, 1-benzylindolin-5-yl 2-(furfurylthio)ethylcarbamate], in experiment [1], inhibition was half-maximal at 15 nM (IC50); the “Ratio AChE/BuChE” value was more than 6700; the “selectivity to butyrylcholinesterase (BuChE versus AChE inhibitory activity), in words” value is listed as “much higher”. Besides, in experiment [2], the IC50 was more than 100000 nM.
Turning to `Cc1ccc(NC(=O)Oc2ccc3c(c2)CCN3Cc2ccccc2)cc1` [Example 55, 1-benzylindolin-5-yl-4-methylphenylcarbamate], the results for the IC50 in experiment [1] (setting [3]) and in experiment [2] (read-out: AChE inhibitory activity IC50) were 290 nM and more than 100000 nM, respectively. For the same compound, the “Ratio AChE/BuChE” value in experiment [1] was more than 340.
On to `CCNC(=O)Oc1ccc2c(c1)CCN2Cc1ccccc1` [Example 57, 1-benzylindolin-5-yl ethylcarbamate], for which the half-maximal inhibitory concentration (IC50) in experiment [1] (setting [3]) stood at 34 nM. In experiment [1], the “Ratio AChE/BuChE” value turned out to be 2000 and the “selectivity to butyrylcholinesterase (BuChE versus AChE inhibitory activity), in words” value is given as “much higher”. Moreover, in experiment [2] (setting [4]), the IC50 came to 69000 nM.
Regarding `CC(C)c1ccc(NC(=O)Oc2ccc3c(c2)CCN3Cc2ccccn2)cc1` [Example 60, 1-(2-pyridylmethyl)indolin-5-yl 4-isopropylphenylcarbamate], the values for the IC50 in experiment [1] and in experiment [2] were 130 nM and more than 100000 nM, respectively. For the same compound, in experiment [1], the “Ratio AChE/BuChE” value is given as more than 770.
On the same counts, the results for `CC(C)c1ccc(NC(=O)Oc2ccc3c(c2)CCN3Cc2cccc(O)c2)cc1` [Example 62, 1-(3-hydroxybenzyl)indolin-5-yl 4-isopropylphenylcarbamate] are 450 nM, more than 100000 nM and more than 220.
For `CC(C)c1ccc(NC(=O)Oc2ccc3c(c2)CCN3Cc2ccc[nH]2)cc1` [Example 65, 1-[(pyrrol-2-yl)methyl]indolin-5-yl-4-isopropylphenylcarbamate], the results for the IC50 in experiment [1] (setting [3]) and in experiment [2] (setting [4]) were 700 nM and more than 100000 nM, respectively. The “Ratio AChE/BuChE” value in experiment [1] was more than 140.
For the compound `CC(C)c1ccc(NC(=O)Oc2ccc3c(c2)CCN3Cc2ccccc2O)cc1` [Example 66, 1-(2-hydroxybenzyl)indolin-5-yl 4-isopropylphenylcarbamate], in experiment [1], the half-inhibitory concentration (IC50) is 570 nM and the “Ratio AChE/BuChE” value is on record as more than 180. This compound came in with an IC50 in experiment [2] of more than 100000 nM.
As to `COc1cc(CN2CCc3cc(OC(=O)Nc4ccc(C(C)C)cc4)ccc32)ccc1O` [Example 67, 1-(4-hydroxy-3-methoxybenzyl)indolin-5-yl-4-isopropylphenylcarbamate], the values for the IC50 in experiment [1] (setting [3]) and in experiment [2] (setting [4]) were 1300 nM and more than 100000 nM, respectively. In experiment [1], the “Ratio AChE/BuChE” value was more than 77.
`CC(C)c1ccc(NC(=O)Oc2ccc3c(c2)CCN3CC2CCCCC2)cc1` [Example 75, 1-(cyclohexylmethyl)indolin-5-yl 4-isopropylphenylcarbamate]: in experiment [1], the IC50 amounted to 770 nM and the “Ratio AChE/BuChE” value was more than 130. The compound also displayed an IC50 in experiment [2] of more than 100000 nM.
In the same order, the values of `CC(C)c1ccc(NC(=O)Oc2ccc3c(c2)CCN3Cc2ccc(O)cc2)cc1` [Example 78, 1-(4-hydroxybenzyl)indolin-5-yl 4-isopropylphenylcarbamate] are 820 nM, more than 120 and more than 100000 nM.
In the same order, the values of `CC(C)c1ccc(NC(=O)Oc2ccc3c(c2)CCN3Cc2c[nH]c3ccccc23)cc1` [Example 80, 1-(indol-3-ylmethyl)indolin-5-yl 4-isopropylphenylcarbamate] are 140 nM, more than 710 and more than 100000 nM.
On the same counts, the results for `O=C(Nc1ccc2c(c1)CCC2)Oc1ccc2c(c1)CCN2Cc1ccccc1` [Example 85, 1-benzylindolin-5-yl 5-indanylcarbamate] are 420 nM, more than 240 and more than 100000 nM.
As for `Cc1ccc(CCNC(=O)Oc2ccc3c(c2)CCN3Cc2ccccc2)cc1` [Example 91, 1-benzylindolin-5-yl-4-methylphenethylcarbamate], the IC50 in experiment [1] (setting [3]) turned out to be 59 nM. Moreover, in experiment [1], the “Ratio AChE/BuChE” value is on record as more than 1700 and the “selectivity to butyrylcholinesterase (BuChE versus AChE inhibitory activity), in words” value is given as “much higher”. For the same compound, the half-maximal inhibitory concentration (IC50) in experiment [2] (setting [4]) was more than 100000 nM.
In the same order, the values of `O=C(NC1CCCc2ccccc21)Oc1ccc2c(c1)CCN2Cc1ccccc1` (stereo not drawn) [Example 96, 1-benzylindolin-5-yl-1,2,3,4-tetrahydronaphthalen-1-ylcarbamate] are 17 nM, more than 5900, “much higher” and more than 100000 nM.
Consider `Cc1ccc(C(C)NC(=O)Oc2ccc3c(c2)CCN3Cc2ccccc2)cc1` (stereo not drawn) [Example 97, 1-benzylindolin-5-yl 1-(p-tolyl)ethylcarbamate], for which, in experiment [1], the IC50 was 450 nM and the “Ratio AChE/BuChE” value was more than 220. The IC50 in experiment [2] was more than 100000 nM.
As to `O=C(NCc1cccs1)Oc1ccc2c(c1)CCN2Cc1ccccc1` [Example 98, 1-benzylindolin-5-yl 2-thiophenemethylcarbamate], in experiment [1] (setting [3]), the IC50 amounted to 12 nM. Further, in experiment [1], the “Ratio AChE/BuChE” value was found to be 130 and the “selectivity to butyrylcholinesterase (BuChE versus AChE inhibitory activity), in words” value is “much higher”. Moreover, in experiment [2] (setting [4]), the IC50 is 1600 nM.
In the same order, the values of `Cc1ccc(CNC(=O)Oc2ccc3c(c2)CCN3Cc2ccccc2)cc1` [Example 99, 1-benzylindolin-5-yl-4-methylbenzylcarbamate] are 21 nM, 670, “much higher” and 14000 nM.
As for `COc1cccc(CNC(=O)Oc2ccc3c(c2)CCN3Cc2ccccc2)c1` [Example 100, 1-benzylindolin-5-yl 3-methoxybenzylcarbamate], the figures for the IC50 in experiment [1] (setting [3]) and in experiment [2] (setting [4]) were 7.3 nM and 1600 nM, respectively. Moreover, in experiment [1], the “Ratio AChE/BuChE” value is 220. For the same compound, the “selectivity to butyrylcholinesterase (BuChE versus AChE inhibitory activity), in words” value in experiment [1] is listed as “much higher”.
Regarding `O=C(NCc1ccccn1)Oc1ccc2c(c1)CCN2Cc1ccccc1` [Example 102, 1-benzylindolin-5-yl 2-pyridylmethylcarbamate], the IC50 in experiment [1] (setting [3]) stood at 130 nM; in experiment [2] (setting [4]), 10000 nM. The “Ratio AChE/BuChE” value in experiment [1] is reported as 77.
On the same counts, the results for `O=C(NCc1ccncc1)Oc1ccc2c(c1)CCN2Cc1ccccc1` [Example 103, 1-benzylindolin-5-yl 4-pyridylmethylcarbamate] are 110 nM, 9300 nM and 85.
